From patent publication US4737518A, “Lipid derivatives, their production and use” (Takeda Chemical Industries, Ltd., priority 1984, dated 1988)

What was measured:
[1] = tested on: rabbit platelet aggregation by PAF; assay: Inhibitory activity on rabbit platelet aggregation by PAF; type: cell-based; settings: Oryctolagus cuniculus, PAF 1×10^-8 M, read-out: rate of inhibition of rabbit platelet aggregation by PAF; for inhibition at 30 µM: test drug 3 × 10^-5 M; for inhibition at 3 µM: test drug 3 × 10^-6 M; for inhibition at 0.3 µM: test drug 3 × 10^-7 M; for inhibition at 0.03 µM: test drug 3 × 10^-8 M
PAF-induced hypotension = assay: Inhibitory activity against PAF-induced hypotension in rats; type: in vivo, rat (male Spraque-Dawley); settings: PAF 0.3 μg/kg i.v.
Experimental: Inhibitory activity against PAF-induced hypotension in rats
Male Spraque-Dawley rats, with a body weight of about 400 g, were used under pentobarbital sodium (50 mg/kg, intravenous administration) anesthesia. A cannula was inserted into the femoral artery and secured in position for measurement of blood pressure and another cannula into the femoral vein for administration of a solution of the drug. The blood pressure was measured via a pressure transducer and recorded on a polygraph. First, 0.3 μg/kg of PAF was administered intravenously and the hypotensive response was recorded.
The inhibitory activity against PAF-induced hypotension was estimated from the rate of PAF-induced hypotensive response (Δ mmHg) after the drug administration to hypotensive response (Δ mmHg) by PAF before the drug administration.

HL-60 cells = assay: Effect on inducing differentiation of HL-60 cells (NBT-positive cells); type: cell-based, human; settings: 6 days; for Emax: Homo sapiens, HL-60, 144 h, at optimal conc., NBT-positive relative to live cells, read-out: Maximum differentiation extent: Differentiation
Experimental: Assay of the effects on inducing differentiation of HL-60 cells (human promyelocytic leukemia cells) and Neuro-2a cells (mouse neuroblastoma cells): RPMI-1640 medium (Flow Laboratories, Inc.) supplemented with 20% fetal calf serum (M.A. […] The culture was incubated at 37° C. in a 5% CO2 incubator for 6 days. […] The reaction was allowed to proceed at 37° C. for 20 minutes. The reaction was stopped by cooling with ice, and the cells were washed by means of centrifugation, followed by collecting 3-5×10^4 cells and by subjecting to centrifugation using Cytospin centrifuge to prepare a cell smear, which was fixed with methanol and stained with Kernechtrot solution. On each cell smear, the percentage of NBT-positive cells relative to live cells, […] by examination of a minimum of 200 cells, was expressed as the differentiation extent.

Row | Structure (SMILES) | inhibition at 30 µM [1] | inhibition at 3 µM [1] | inhibition at 0.3 µM [1] | also measured
1 | C=CC[n+]1ccccc1CN(C(C)=O)C(=O)OCC(COC(=O)NCCCCCCCCCCCCCCCCCC)OC (stereo not shown) [Example 174, 3-[N-Acetyl-N-(N'-allylpyridinio-2-yl)methyl]carbamoyl-1-octadecylcarbamoyl-2-methylglycerol chloride] | 100% | 100% | 100% | –
2 | CCCCCCCCCCCCCCCCCCNC(=O)OCC(COC(=O)N(CC[N+](C)(C)C)C(=O)N(C)C)OC (stereo not shown) [Example 62, 1-O-[N-Dimethylcarbamoyl-N-(2'-trimethylammonioethyl)]carbamoyl-2-O-methyl-3-O-octadecylcarbamoylglycerol iodide] | 100% | 34% | – | –
3 | CCCCCCCCCCCCCCCCCCNC(=O)OCC(COC(=O)N(CC[N+](C)(C)C)C(=O)OC)OC (stereo not shown) [Example 56, 2-O-Methyl-1-O-[N-methoxycarbonyl-N-(2'-trimethylammonioethyl)]carbamoyl-3-O-octadecylcarbamoylglycerol iodide] | 100% | 64% | – | –
4 | CCCCCCCCCCCCCCCCCCNC(=O)OCC(COC(=O)N(Cc1scc[n+]1CCC)C(C)=O)OC (stereo not shown) [Example 144, 2-[N-Acetyl-N-(3-octadecylcarbamoyloxy-2-methoxypropoxycarbonyl)amino]methyl-3-propylthiazolium iodide] | – | 100% | 100% | inhibition at 0.03 µM [1]: 9%
5 | CCCCCCCCCCCCCCCCCCNC(=O)OCC(COC(=O)N(Cc1cccc[n+]1C)C(C)=O)OCC (stereo not shown) [Example 116] | 100% | 100% | 100% | Restoration rate (PAF-induced hypotension; 1 mg/kg i.v., after 5 min): 100%; Restoration rate (PAF-induced hypotension; 1 mg/kg i.v., after 60 min): 77%
6 | CCCCCCCCCCCCCCCCCCOCC(COC(=O)NCC[n+]1ccsc1)OCc1ccccc1 (stereo not shown) [Example 8, 2-O-Benzyl-1-O-octadecyl-3-O-(2'-thiazolioethyl)carbamoylglycerol bromide] | 100% | – | – | –
7 | CCCCCCCCCCCCCCCCCCNC(=O)OCC(COC(=O)N(Cc1scc[n+]1C)C(C)=O)OC.[I-] (stereo not shown) [Example 142, 2-[N-Acetyl-N-(3-octadecylcarbamoyloxy-2-methoxypropoxycarbonyl)amino]methyl-3-methylthiazolium iodide] | 100% | 100% | 100% | inhibition at 0.03 µM [1]: 25%; Restoration rate (PAF-induced hypotension; 1 mg/kg i.v., after 5 min): 100%; Restoration rate (PAF-induced hypotension; 1 mg/kg i.v., after 60 min): 100%
8 | CCCCCCCCCCCCCCCCCCNC(=O)OCC(COC(=O)N(Cc1cccc[n+]1CCC)C(C)=O)OC (stereo not shown) [Example 173, 3-[N-Acetyl-N-(N'-propylpyridinio-2-yl)methyl]carbamoyl-1-octadecylcarbamoyl-2-methylglycerol chloride] | 100% | 100% | 100% | –
9 | CCCCCCCCCCCCCCCCCCOCC(COC(=O)N(CC[N+](C)(C)C)C(C)=O)NC(C)=O (stereo not shown) [Example 20, 1-Octadecyloxy-2-acetamido-3-[N-acetyl-N-(2'-trimethylammonioethyl)]carbamoyloxypropane iodide] | 100% | 100% | – | –
10 | CCCCCCCCCCCCCCCCCCNC(=O)OCC(COC(=O)NCC[N+](C)(C)C)OC (stereo not shown) [Example 10, 2-O-Methyl-1-O-octadecylcarbamoyl-3-O-(2'-trimethylammonioethyl)carbamoylglycerol iodide] | 82% | – | – | –
11 | CCCCCCCCCCCCCCCCCCNC(=O)OCC(Cn1ccc(=O)n(CC[N+](C)(C)C)c1=O)OC (stereo not shown) [Example 136, N-[2-{1-(3-Octadecylcarbamoyloxy-2-methoxypropyl)uracil-3-yl}ethyl]-N,N,N-trimethylammonium chloride] | 100% | 100% | 11% | –
12 | CCCCCCCCCCCCCCCCCCOCC(COC(=O)NCC[N+](C)(C)C)NC(C)=O (stereo not shown) [Example 19, 1-Octadecyloxy-2-acetamido-3-(2'-trimethylammonioethyl)carbamoyloxypropane iodide] | 72% | – | – | –
13 | CCCCCCCCCCCCCCCCCCNC(=O)OCC(CN1CC(=O)N(CC[n+]2ccsc2)C1=O)OC (stereo not shown) [Example 110, 1-[(2-methoxy-3-octadecylcarbamoyloxy)propyl]-3-(2-thiazolioethyl)hydantoinchloride] | 100% | 100% | 34% | –
14 | CCCCCCCCCCCCCCCCCCNC(=O)OCC(COC(=O)N(Cc1csc[n+]1C)C(C)=O)OC (stereo not shown) [Example 148, 4-[N-Acetyl-N-(3-octadecylcarbamoyloxy-2-methoxypropoxycarbonyl)amino]methyl-3-methylthiazolium iodide] | – | 100% | 42% | –
15 | CCCCCCCCCCCCCCCCCCNC(=O)OCC(COC(=O)N(Cc1cccc[n+]1CCCC)C(C)=O)OC (stereo not shown) [Example 177, 3-[N-Acetyl-N-(N'-butylpyridinio-2-yl)methyl]carbamoyl-1-octadecylcarbamoyl-2-methylglycerol chloride] | – | – | – | Maximum differentiation extent: Optimal conc. (HL-60 cells): 0.48 µg/mL; Emax (HL-60 cells): 91%
16 | CCCCCCCCCCCCCCCCCCNC(=O)OCC(COC(=O)NCc1scc[n+]1C)OC (stereo not shown) [Example 140, 2-[N-(3-Octadecylcarbamoyloxy-2-methoxypropoxycarbonyl)amino]methyl-3-methylthiazolium iodide] | 100% | 100% | 100% | inhibition at 0.03 µM [1]: 18%
17 | CCCCCCCCCCCCCCCCCCNC(=O)OCC(COC(=O)N(Cc1scc[n+]1CC)C(C)=O)OC.[I-] (stereo not shown) [Example 143, 2-[N-Acetyl-N-(3-octadecylcarbamoyloxy-2-methoxypropoxycarbonyl)amino]methyl-3-ethylthiazolium iodide] | – | 100% | 100% | Restoration rate (PAF-induced hypotension; 1 mg/kg i.v., after 5 min): 100%; Restoration rate (PAF-induced hypotension; 1 mg/kg i.v., after 60 min): 100%
18 | CCCCCCCCCCCCCCCCCCNC(=O)OCC(COC(=O)N(C(C)=O)C1CCC[N+](C)(CC)C1)OC (stereo not shown) [Example 161, 3-[N-Acetyl-N-(3-octadecylcarbamoyloxy-2-methoxypropoxycarbonyl)]amino-1-ethyl-1-methylpiperidinium chloride] | 100% | 100% | 6% | –
19 | CCCCCCCCCCCCCCCCCCNC(=O)OCC(COC(=O)NCC[n+]1ccsc1)OC (stereo not shown) [Example 14, 2-O-Methyl-1-O-octadecylcarbamoyl-3-O-(2'-thiazolioethyl)carbamoylglycerol bromide] | 100% | 52% | – | –
20 | CCCCCCCCCCCCCCCCCCNC(=O)OCC(COC(=O)N(Cc1cccc[n+]1CC)C(C)=O)OCC (stereo not shown) [Example 117] | – | 100% | 100% | Restoration rate (PAF-induced hypotension; 1 mg/kg i.v., after 5 min): 100%; Restoration rate (PAF-induced hypotension; 1 mg/kg i.v., after 60 min): 100%
21 | CCCCCCCCCCCCCCCCCCNC(=O)OCC(COC(=O)N(Cc1scc[n+]1CCCC)C(C)=O)OC (stereo not shown) [Example 145, 2-[N-Acetyl-N-(3-octadecylcarbamoyloxy-2-methoxypropoxycarbonyl)amino]methyl-3-butylthiazolium iodide] | – | 100% | 100% | –
22 | CCCCCCCCCCCCCCCCCCOCC(Cn1ccc(=O)n(CC[N+](C)(C)C)c1=O)OC(C)=O (stereo not shown) [Example 102, 1-(2-Acetyloxy-3-octadecyloxy)propyl-3-(2-trimethylammonioethyl)urasil chloride] | 100% | 100% | – | inhibition at 1 µM ([1]; test drug 1 × 10^-6 M): 72%
23 | CCCCCCCCCCCCCCCCCCNC(=O)OCC(COC(=O)N(Cc1csc[n+]1CC)C(C)=O)OC.[I-] (stereo not shown) [Example 149, 4-[N-Acetyl-N-(3-octadecylcarbamoyloxy-2-methoxypropoxycarbonyl)amino]methyl-3-ethylthiazolium iodide] | – | 100% | 100% | inhibition at 0.03 µM [1]: 78%; Restoration rate (PAF-induced hypotension; 0.1 mg/kg i.v., after 5 min): 100%; Restoration rate (PAF-induced hypotension; 0.1 mg/kg i.v., after 60 min): 39%; Restoration rate (PAF-induced hypotension; 1 mg/kg i.v., after 5 min): 100%; Restoration rate (PAF-induced hypotension; 1 mg/kg i.v., after 60 min): 100%
24 | CCCCCCCCCCCCCCCCCCNC(=O)OCC(CNC(=O)N(Cc1cccc[n+]1C)C(C)=O)OC.[Cl-] (stereo not shown) [Example 106, 1-Methyl-2-[N-acetyl-N'-(3-octadecylcarbamoyloxy-2-methoxypropyl)ureido]methylpyridinium chloride] | – | – | – | Maximum differentiation extent: Optimal conc. (HL-60 cells): 1.88 µg/mL; Emax (HL-60 cells): 78%
